Experimental data reported in patent US8188148B2, “Substituted 1,3-diphenylpropane derivatives, preparations and uses thereof” (Genfit, priority 2006, dated 2012).

Tests used:
[1] = test system: ApoE2/E2 mouse; assay: In vivo evaluation on ApoE2/E2 mouse: body weight and plasma lipids; conditions: E2/E2 mouse, 5, 10, and 50 mpk per os, 8 days, vs control
Method: The dyslipidemic E2/E2 mouse's body weight, rates of total cholesterol, triglycerides and of plasma free fatty acids are measured after 8 days of a per os treatment with the compounds according to the invention.
The murine model used is the ApoE2/E2 mouse, a transgenic mouse having the human apolipoprotein E isoform E2 (Sullivan P M et al., 1998). In human, this apolipoprotein, a constituent of low and very low density lipoproteins (LDL-VLDL), is present in three isoforms E2, E3, and E4. The E2 form presents a mutation affecting the amino acid of position 158, which considerably weakens the affinity of this protein for the receptors to LDL receptors. Accordingly, the VLDL clearance is nearly non-existent. An accumulation of low-density lipoproteins then occurs along with a mixed hyperlipidemia known as of type III (high cholesterol and triglycerides rates).
The ApoE2/E2 transgenic mice were kept on a 12 hour/12 hour light/dark cycle at a constant temperature of 20±3° C. After a one week acclimatization period, the mice were weighed and divided into groups of 6 animals selected so as to render uniform the distribution of their body weights and plasma lipid rates, determined before the experiment. The tested compounds were suspended in carboxymethylcellulose (Sigma C4888) and administered by intra-gastric tube feeding, once a day for 8 days at the chosen dosage. The animals had free access to food and water (standard diet). Taking of food and weight gain are recorded throughout the experiment. At the end of the experiment, the animals were anesthetized after a 4 hour fast, a blood sample was taken using (EDTA) anticoagulant, then the mice were weighed and euthanized. The plasma was prepared by centrifugation at 3000 rotations/minute for 20 minutes. The samples were kept at +4° C.
Plasma lipid concentrations (total cholesterol and triglycerides) are measured by enzymatic dosages (bioMérieux-Lyon-France) according to the provider's recommendations.
Plasma cholesterol and triglycerides rates are measured after 8 days of a per os treatment with the compounds according to the invention. These rates are compared with those obtained with control animals (not treated with compounds according to the invention).
Low-density lipoproteins (VLDL and LDL) are precipitated by Phosphotungstate. The precipitate is eliminated by centrifugation. HDL cholesterol present in the supernatant is measured by enzymatic dosages (bioMérieux-Lyon-France) in accordance with the provider's recommendations.

[2] = test system: db/db mouse; assay: In vivo evaluation on db/db mouse: body weight, glycemia, insulinemia, plasma lipids; conditions: 50 mpk per os, 28 days
Method: The effect of the compounds according to the invention is evaluated in vivo on the db/db mouse by measuring the body weight evolution, the glucose levels, the insulin levels, the plasma total cholesterol and triglyceride levels, and by analyzing the distribution of cholesterol in different plasma lipoprotein fractions, after 28 days of a per os treatment with compounds according to the invention.
Female db/db mice were kept on a 12 hour/12 hour light/dark cycle at a constant temperature of 20±3° C. After a one week acclimatization period, the mice were weighed and divided into groups of 8 animals selected so as to render uniform the distribution of their body weights and their plasma lipid rates, determined before the experiment. The tested compounds were suspended in carboxymethylcellulose (Sigma C4888) and administered intra-gastric tube feeding once a day for 28 days at the chosen dose. The animals had free access to food and water (standard diet). Taking of food and weight gain are recorded throughout the experiment. At the end of the experiment, the animals were anesthetized after a 4 hour fast, a blood sample was taken using (EDTA) anticoagulant, then the mice were weighed and euthanized. The plasma was separated by centrifugation at 3000 rotations/minute for 20 minutes. The samples were kept at +4° C. The hepatic tissue and skeletal muscle tissue samples were taken and frozen immediately in liquid nitrogen then conserved at −80° C. for later analysis.
Murine plasma glucose is measured out according to an enzyme-colorimetric method using a Glucose RTU kit (Biomérieux). Glucose is transformed into gluconic acid under the action of glucose oxidase; the reaction releases hydrogen peroxide. Hydrogen peroxide is measured according to the Trinder reaction which, under the action of a peroxidase and in the presence of phenol and amino-4-antipyrine, produces water and a colored product, quinoneimine. The color intensity, due to the quinoneimine, is proportional to the amount of glucose present in the sample.
Murine insulin is measured using ELISA method (using the INSKR020 kit from provider Crystal chem.). A microplate is coated with a mouse anti-insulin antibody. Then, the serum to be assayed for insulin is placed onto the plate. A guinea pig anti-insulin antibody is used to recognize the complex formed by the mouse insulin and the anti-insulin monoclonal antibody. Finally an anti-guinea pig antibody labeled with peroxidase is added and bind to the guinea pig anti-insulin antibody. The colorimetric reaction is performed by adding an OPD (ortho phenyl diamine) enzyme substrate. The intensity of the color is proportional to the amount of insulin present in the sample.
Plasma lipid concentrations (total cholesterol and triglycerides) are measured by enzymatic assays (bioMérieux-Lyon-France) according to the provider's recommendations.
The different lipid fractions (VLDL, LDL, HDL) in the plasma were separated using gel-filtration chromatography. Cholesterol concentrations were then measured for each fraction by enzymatic assays (bioMérieux-Lyon-France) according to the provider's recommendations.

In the case of `Cc1cc(CCC(=O)c2ccc(OC(F)(F)F)cc2)cc(C)c1OC(C)(C)C(=O)O` [Compound 1, 2-[2,6-dimethyl-4-[3-[4-(trifluoromethyloxy)phenyl]-3-oxo-propyl]phenoxy]-2-methyl-propanoic acid], the body weight gain [1] is reported as “weight loss”, the “plasma HDL-cholesterol” value [1] is reported as “significantly increased” and the “plasma free fatty acids” value [1] is reported as “decreased very significantly”. The plasma total cholesterol [1] was “significantly reduced”, the plasma triglycerides [1] was “decreased very significantly” and the “HDL-cholesterol fraction (distribution of cholesterol in plasma lipoprotein fractions)” value [2] was “significant increase”. For the same compound, the “glycemia (plasma glucose)” value [2] was “significantly reduced”, the “insulinemia (plasma insulin)” value [2] was “significantly reduced” and the body weight gain ([2]; vs control) was “weight loss”. For the same compound, the “plasma free fatty acids” value ([2]; vs control) was “very significantly decreased”, the plasma triglycerides ([2]; vs control) was “very significantly decreased” and the total plasma cholesterol ([2]; vs control) was “significantly increased”.
